Measured values as given in ChEMBL document CHEMBL1157941, “Sapinmusaponins F-J, bioactive tirucallane-type saponins from the galls of Sapindus mukorossi” (J Nat Prod, 2006).

What was measured:
Platelet [1] = test: Inhibition of arachidonic acid-induced platelet aggregation in citreated rabbit platelet-rich plasma by turbidimetric method; assay type: functional; details: Oryctolagus cuniculus
Platelet [2] = test: Inhibition of thrombin-induced platelet aggregation in citreated rabbit platelet-rich plasma by turbidimetric method; assay type: functional; details: Oryctolagus cuniculus
[3] = Cytotoxicity against rabbit platelet assessed as LDH release; assay type: cell-based, Oryctolagus cuniculus; set-up: concentration or dose not given beside the values
Platelet [4] = test: Inhibition of […]-induced platelet aggregation in citreated rabbit platelet-rich plasma by turbidimetric method; assay type: functional; details: Oryctolagus cuniculus
Platelet [5] = test: Inhibition of U46619-induced platelet aggregation in citreated rabbit platelet-rich plasma by turbidimetric method; assay type: functional; details: Oryctolagus cuniculus
Raji [6] = test: Inhibition of 12-O-tetradecanoylphorbol-13-acetate induced EBV-early antigen activation in human Raji cells assessed as EA activation at 10 molar ratio after 48 hrs relative to TPA; assay type: cell-based; set-up: scale not given: the % may be the effect or the level left; details: human gammaherpesvirus 4
Raji [7] = test: Inhibition of 12-O-tetradecanoylphorbol-13-acetate induced EBV-early antigen activation in human Raji cells assessed as EA activation at 100 molar ratio after 48 hrs relative to TPA; assay type: cell-based; set-up: scale not given: the % may be the effect or the level left; details: human gammaherpesvirus 4
Raji [8] = test: Inhibition of 12-O-tetradecanoylphorbol-13-acetate induced EBV-early antigen activation in human Raji cells assessed as EA activation at 500 molar ratio after 48 hrs relative to TPA; assay type: cell-based; set-up: scale not given: the % may be the effect or the level left; details: human gammaherpesvirus 4
Raji [9] = test: Inhibition of 12-O-tetradecanoylphorbol-13-acetate induced EBV-early antigen activation in human Raji cells assessed as EA activation at 1000 molar ratio after 48 hrs relative to TPA; assay type: cell-based; set-up: scale not given: the % may be the effect or the level left; details: human gammaherpesvirus 4
[10] = Cytotoxicity against human Raji cells assessed as cell viability at 1000 molar ratio by trypan blue assay; assay type: cell-based; details: read-out: Activity

SMILES	IC50 (Platelet [1]) [µM]	IC50 (Platelet [2]) [µM]	Activity [3] [%]	IC50 (Platelet [4]) [µM]	IC50 (Platelet [5]) [µM]	Activity (Raji [6]) [%]	Activity (Raji [7]) [%]	Activity (Raji [8]) [%]	Activity (Raji [9]) [%]	viability at 1000 molar ratio [10] [%]
CC(C)=CCC(O)[C@@](C)(O)[C@H]1CC[C@]2(C)[C@@H]1CC[C@@H]1[C@@]3(C)CC[C@H](O[C@@H]4O[C@H](CO)[C@@H](O)[C@H](O)[C@H]4O[C@@H]4O[C@@H](C)[C@H](O)[C@@H](O)[C@H]4O)C(C)(C)[C@@H]3C[C@H](O)[C@]12C (some centres undefined) [SAPINMUSAPONIN A]	> 100	> 100	62.3	> 100	> 100	–	–	–	–	–
CC(C)=CC(O)C(O)[C@@](C)(O)[C@H]1CC[C@]2(C)[C@@H]1CC[C@@H]1[C@@]3(C)CC[C@H](O[C@@H]4O[C@H](CO)[C@@H](O)[C@H](O)[C@H]4O[C@@H]4O[C@@H](C)[C@H](O)[C@@H](O)[C@H]4O)C(C)(C)[C@@H]3C[C@H](O)[C@]12C (some centres undefined) [SAPINMUSAPONIN B]	> 100	> 100	62.3	> 100	> 100	–	–	–	–	–
C[C@@H]1O[C@@H](O[C@H]2[C@H](O[C@H]3CC[C@]4(C)[C@H]5CC[C@@H]6[C@@H]([C@](C)(O)C(O)/C=C/C(C)(C)O)CC[C@@]6(C)[C@]5(C)[C@@H](O)C[C@H]4C3(C)C)O[C@H](CO)[C@@H](O)[C@@H]2O)[C@H](O)[C@H](O)[C@H]1O (some centres undefined) [SAPINMUSAPONIN C]	> 100	> 100	62.3	> 100	> 100	–	–	–	–	–
COC(C)(C)/C=C/C(O)[C@@](C)(O)[C@H]1CC[C@]2(C)[C@@H]1CC[C@@H]1[C@@]3(C)CC[C@H](O[C@@H]4O[C@H](CO)[C@@H](O)[C@H](O)[C@H]4O[C@@H]4O[C@@H](C)[C@H](O)[C@@H](O)[C@H]4O)C(C)(C)[C@@H]3C[C@H](O)[C@]12C (some centres undefined) [SAPINMUSAPONIN D]	> 100	> 100	62.3	> 100	> 100	–	–	–	–	–
CO[C@H]1O[C@H](C=C(C)C)C[C@H]1[C@@H]1CC[C@]2(C)C3=CC[C@H]4C(C)(C)[C@@H](O[C@@H]5O[C@H](CO[C@@H]6O[C@@H](C)[C@H](O)[C@@H](O)[C@H]6O)[C@@H](O)[C@H](O)[C@H]5O)CC[C@]4(C)[C@H]3CC[C@@]12C [SAPINMUSAPONIN F]	6.7	8.4	< 10	7.7	3.4	100	82.6	53.6	9.1	60
CO[C@@H]1O[C@H](C=C(C)C)C[C@H]1[C@@H]1CC[C@]2(C)C3=CC[C@H]4C(C)(C)[C@@H](O[C@@H]5O[C@H](CO[C@@H]6O[C@@H](C)[C@H](O)[C@@H](O)[C@H]6O)[C@@H](O)[C@H](O)[C@H]5O)CC[C@]4(C)[C@H]3CC[C@@]12C [SAPINMUSAPONIN G]	12.5	8.9	< 10	13.5	5.4	100	83.7	53.9	9.7	60
CO[C@@H]1O[C@H](C=C(C)C)C[C@H]1[C@@H]1CC[C@]2(C)C3=CC[C@H]4C(C)(C)[C@@H](O[C@@H]5O[C@H](CO)[C@@H](O)[C@H](O)[C@H]5O[C@@H]5O[C@@H](C)[C@H](O)[C@@H](O)[C@H]5O)CC[C@]4(C)[C@H]3CC[C@@]12C [SAPINMUSAPONIN H]	71.5	> 100	< 10	4.6	16.3	100	83.7	54.4	11	60
CO[C@H]1O[C@H](C=C(C)C)C[C@H]1[C@@H]1CC[C@]2(C)C3=CC[C@H]4C(C)(C)[C@@H](O[C@@H]5O[C@H](CO[C@@H]6O[C@@H](C)[C@H](O)[C@@H](O)[C@H]6O)[C@@H](O)[C@H](O)[C@H]5O[C@@H]5O[C@@H](C)[C@H](O)[C@@H](O)[C@H]5O)CC[C@]4(C)[C@H]3CC[C@@]12C [SAPINMUSAPONIN I]	2.3	41.4	< 10	11.8	–	100	82.6	60.5	14.3	60
